In one assay the target is T1, mTOR (Homo sapiens, UniProt P42345).
T1 construct: purchased Invitrogen PV4754
Briefly: mTOR assay (LanthaScreen kinase activity assay). The format is biochemical.

In a further assay the target is T2, PI3K (p110α/p85α) (Homo sapiens, UniProt P42336).
T2 construct: purchased Carna Biosciences 07CBS-0402A
Briefly: PI3K activity assay (ADP Hunter Plus). The format is biochemical. Put shortly: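 ADP accumulation measured by coupled fluorescence (ex 544/em 580 nm) after a 1 h kinase reaction at 25 °C, then 30 min at 37 °C with detection reagents. Activity normalised to no-compound control (100%) and IC50 from sigmoid dose-response fit.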

The target of another assay is T3, PIM-1 (Homo sapiens, UniProt P11309).
T3 construct: histidine tag (C); made in house
T3 sequence (P11309 whole entry): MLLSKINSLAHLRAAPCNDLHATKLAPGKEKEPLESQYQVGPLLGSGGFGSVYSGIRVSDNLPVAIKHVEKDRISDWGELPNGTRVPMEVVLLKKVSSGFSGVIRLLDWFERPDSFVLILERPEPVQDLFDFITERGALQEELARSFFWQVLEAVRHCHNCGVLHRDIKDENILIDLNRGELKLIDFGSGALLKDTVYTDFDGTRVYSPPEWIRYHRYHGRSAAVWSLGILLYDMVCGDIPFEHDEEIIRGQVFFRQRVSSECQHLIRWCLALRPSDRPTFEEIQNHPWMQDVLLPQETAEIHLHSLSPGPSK
Nature of the assay: PIM-1 biochemical assay (ADP Hunter). Put shortly:
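Recombinant His-tagged human PIM-1 (50 pg/μl) with PIMtide peptide (60 μM) and 100 μM ATP in HEPES pH 7.4 buffer with MgCl2, 60 min at 30° C, DMSO below 2%. ADP formed detected by coupled ADP Hunter reaction as resorufin fluorescence (Ex 544/Em 580 nm).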

The mark [1] stands for this setting: read-out: mTOR activity (semi-quantitative IC50).
Setting [2] is: read-out: PI3K alpha IC50 (in parentheses).
[3] abbreviates: read-out: PI3K alpha activity (semi-quantitative IC50).
[4] abbreviates: read-out: PIM-1 IC50 (in parentheses).
The mark [5] stands for this setting: read-out: PIM-1 activity (semi-quantitative IC50).

The structures appear in SMILES notation. Read-outs that look alike come from different tables or passages of the source.

T2 sequence (P42336 whole entry): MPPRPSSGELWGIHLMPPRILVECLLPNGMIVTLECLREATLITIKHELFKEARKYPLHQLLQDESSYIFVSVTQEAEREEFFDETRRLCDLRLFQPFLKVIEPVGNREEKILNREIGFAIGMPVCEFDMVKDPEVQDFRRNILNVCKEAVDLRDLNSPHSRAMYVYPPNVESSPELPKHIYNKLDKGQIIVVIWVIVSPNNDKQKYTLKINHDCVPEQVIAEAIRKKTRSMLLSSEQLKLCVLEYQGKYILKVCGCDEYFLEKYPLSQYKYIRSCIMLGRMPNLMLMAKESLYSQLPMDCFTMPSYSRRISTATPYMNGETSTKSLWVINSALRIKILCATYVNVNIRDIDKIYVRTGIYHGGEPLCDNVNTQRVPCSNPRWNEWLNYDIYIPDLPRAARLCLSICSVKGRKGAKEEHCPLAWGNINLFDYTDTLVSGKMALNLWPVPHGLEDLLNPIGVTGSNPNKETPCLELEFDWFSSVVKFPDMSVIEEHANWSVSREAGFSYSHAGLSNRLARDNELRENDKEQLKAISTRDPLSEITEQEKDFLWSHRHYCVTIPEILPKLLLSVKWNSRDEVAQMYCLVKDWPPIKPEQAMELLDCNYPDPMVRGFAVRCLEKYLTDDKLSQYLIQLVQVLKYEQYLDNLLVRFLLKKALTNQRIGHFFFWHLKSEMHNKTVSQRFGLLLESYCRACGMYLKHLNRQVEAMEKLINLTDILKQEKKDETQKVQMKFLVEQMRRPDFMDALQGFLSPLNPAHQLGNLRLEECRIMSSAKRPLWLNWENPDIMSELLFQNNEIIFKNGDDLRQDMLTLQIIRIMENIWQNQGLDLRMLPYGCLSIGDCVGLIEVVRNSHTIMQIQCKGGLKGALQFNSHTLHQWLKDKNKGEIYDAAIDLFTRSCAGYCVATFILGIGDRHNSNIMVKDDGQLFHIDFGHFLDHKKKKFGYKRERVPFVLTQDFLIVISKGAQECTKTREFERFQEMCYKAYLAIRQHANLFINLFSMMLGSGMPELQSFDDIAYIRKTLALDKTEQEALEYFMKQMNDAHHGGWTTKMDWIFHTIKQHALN
T2 sequence (P27986 whole entry partner): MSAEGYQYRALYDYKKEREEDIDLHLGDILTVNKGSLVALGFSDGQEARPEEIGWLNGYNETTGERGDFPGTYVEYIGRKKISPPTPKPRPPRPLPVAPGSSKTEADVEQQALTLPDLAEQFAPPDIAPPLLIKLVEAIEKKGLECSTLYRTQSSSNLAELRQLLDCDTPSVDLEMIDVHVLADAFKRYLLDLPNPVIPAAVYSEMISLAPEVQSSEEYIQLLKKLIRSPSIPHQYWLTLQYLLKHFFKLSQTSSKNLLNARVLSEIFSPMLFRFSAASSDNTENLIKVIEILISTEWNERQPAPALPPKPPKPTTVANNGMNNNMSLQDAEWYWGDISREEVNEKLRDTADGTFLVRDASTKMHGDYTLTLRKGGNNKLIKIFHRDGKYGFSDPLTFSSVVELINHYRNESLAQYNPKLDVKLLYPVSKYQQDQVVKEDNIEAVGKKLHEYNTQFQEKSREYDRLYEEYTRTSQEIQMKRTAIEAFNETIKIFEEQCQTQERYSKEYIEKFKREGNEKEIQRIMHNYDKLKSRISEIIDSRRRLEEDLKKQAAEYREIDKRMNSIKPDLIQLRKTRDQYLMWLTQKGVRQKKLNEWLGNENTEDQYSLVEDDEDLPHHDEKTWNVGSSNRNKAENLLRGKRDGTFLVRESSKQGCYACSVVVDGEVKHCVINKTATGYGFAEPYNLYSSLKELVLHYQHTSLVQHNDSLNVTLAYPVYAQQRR
T1 sequence (P42345 1360-2549 limits assumed): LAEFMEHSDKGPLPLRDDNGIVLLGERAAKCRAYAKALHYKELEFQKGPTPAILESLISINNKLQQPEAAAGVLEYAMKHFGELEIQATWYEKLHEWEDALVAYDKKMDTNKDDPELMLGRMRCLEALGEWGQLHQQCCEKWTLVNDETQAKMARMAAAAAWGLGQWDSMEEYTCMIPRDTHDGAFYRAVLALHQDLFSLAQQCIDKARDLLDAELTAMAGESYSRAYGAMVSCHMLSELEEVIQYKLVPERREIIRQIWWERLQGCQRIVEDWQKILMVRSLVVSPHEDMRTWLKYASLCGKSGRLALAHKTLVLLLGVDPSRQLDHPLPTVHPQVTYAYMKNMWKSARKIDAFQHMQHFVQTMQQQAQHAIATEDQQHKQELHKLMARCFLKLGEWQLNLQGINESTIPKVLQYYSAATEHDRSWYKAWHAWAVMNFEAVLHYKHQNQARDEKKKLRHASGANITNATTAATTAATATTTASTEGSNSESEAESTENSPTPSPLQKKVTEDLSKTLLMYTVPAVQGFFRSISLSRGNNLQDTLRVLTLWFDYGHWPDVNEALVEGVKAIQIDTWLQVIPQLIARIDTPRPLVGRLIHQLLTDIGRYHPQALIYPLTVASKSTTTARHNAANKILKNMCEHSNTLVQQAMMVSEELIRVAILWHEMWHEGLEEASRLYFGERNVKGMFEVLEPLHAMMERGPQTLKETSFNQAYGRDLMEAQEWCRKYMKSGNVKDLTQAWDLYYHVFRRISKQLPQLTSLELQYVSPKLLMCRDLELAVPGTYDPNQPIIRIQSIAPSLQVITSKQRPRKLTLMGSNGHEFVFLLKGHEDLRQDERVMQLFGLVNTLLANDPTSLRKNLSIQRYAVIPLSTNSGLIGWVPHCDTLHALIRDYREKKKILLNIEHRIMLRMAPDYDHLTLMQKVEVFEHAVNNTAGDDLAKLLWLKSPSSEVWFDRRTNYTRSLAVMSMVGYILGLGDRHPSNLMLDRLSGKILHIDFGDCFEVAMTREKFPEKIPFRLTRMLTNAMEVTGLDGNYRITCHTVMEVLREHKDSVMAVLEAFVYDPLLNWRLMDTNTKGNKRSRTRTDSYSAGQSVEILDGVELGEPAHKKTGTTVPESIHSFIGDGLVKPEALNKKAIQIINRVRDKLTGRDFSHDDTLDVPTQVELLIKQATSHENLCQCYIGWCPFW

Turning to `COc1ncc2cc1NS(=O)(=O)c1cccc(c1)C(=O)NC[C@@H]1CCN(C1)c1ncnc3c1SC2=C3C` [compound 94], the 50% inhibitory concentration (IC50) on mTOR (setting [1]) was over 1000 nM; at PI3K (p110α/p85α) (setting [2]) it was 26 nM; on PI3K (p110α/p85α) (setting [3]), under 100 nM; at PIM-1 (setting [4]), 65 nM; on PIM-1 (setting [5]), under 100 nM.
With `COCCOc1ccc2cc1C(=O)NCC1=CC=C(S1)c1ncnc3c1SC(=C3C)c1cnc(OC)c(c1)NS2(=O)=O` [compound 95], the IC50 on mTOR (setting [1]) is over 1000 nM; at PI3K (p110α/p85α) (setting [2]), 20 nM; on PI3K (p110α/p85α) (setting [3]), under 100 nM; on PIM-1 (setting [5]), 100 to 1000 nM.
On to `COc1ccc2cc1C(=O)NCC1=CC=C(S1)c1ncnc3c1SC(=C3)c1cnc(OC)c(c1)NS2(=O)=O` [compound 97], for which the half-maximal inhibitory concentration (IC50) on mTOR (setting [1]) is over 1000 nM; at PI3K (p110α/p85α) (setting [3]), 100 to 1000 nM; at PIM-1 (setting [4]), 62 nM; at PIM-1 (setting [5]), under 100 nM.
Consider `COc1ncc2cc1NS(=O)(=O)c1ccc(Cl)c(c1)C(=O)NCC1=CC=C(S1)c1ncnc3c1SC2=C3` [compound 98], for which the half-maximal inhibitory concentration (IC50) is over 1000 nM on mTOR (setting [1]); 37 nM at PI3K (p110α/p85α) (setting [2]); under 100 nM on PI3K (p110α/p85α) (setting [3]); 13 nM on PIM-1 (setting [4]); under 100 nM at PIM-1 (setting [5]).
As for `COc1ncc2cc1NS(=O)(=O)c1cccc(c1)C(=O)NC[C@H]1CCN(C1)c1ncnc3c1SC2=C3C` [compound 99], the half-inhibitory concentration (IC50) on mTOR (setting [1]) was over 1000 nM; at PI3K (p110α/p85α) (setting [2]) it was 43 nM; on PI3K (p110α/p85α) (setting [3]), under 100 nM; on PIM-1 (setting [4]), 53 nM; at PIM-1 (setting [5]) it was under 100 nM.
Turning to `COc1ccc2cc1C(=O)NCC1=CC=C(S1)c1ncnc3c1SC(=C3C)c1cnc(OC)c(c1)NS2(=O)=O` [compound 100], the IC50 on mTOR (setting [1]) was over 1000 nM; on PI3K (p110α/p85α) (setting [2]) it was 3.3 nM; at PI3K (p110α/p85α) (setting [3]), under 100 nM; on PIM-1 (setting [4]) it was 31 nM; on PIM-1 (setting [5]), under 100 nM.
Turning to `COc1ncc2cc1NS(=O)(=O)c1cccc(c1)C(=O)NCC1=CC=C(S1)c1ccnc3c1SC2=C3C` [compound 101], the IC50 is over 1000 nM on mTOR (setting [1]); 26 nM on PI3K (p110α/p85α) (setting [2]); under 100 nM at PI3K (p110α/p85α) (setting [3]); 21 nM on PIM-1 (setting [4]); under 100 nM at PIM-1 (setting [5]).
Turning to `COc1ncc2cc1NS(=O)(=O)c1ccc(Cl)c(c1)C(=O)NCC1=CC=C(S1)c1ccnc3c1SC2=C3C` [compound 102], the IC50 at mTOR (read-out: mTOR IC50 (in parentheses)) is 28 nM; on mTOR (setting [1]), under 100 nM; at PI3K (p110α/p85α) (setting [2]), 0.1 nM; on PI3K (p110α/p85α) (setting [3]), under 100 nM; at PIM-1 (setting [4]), 9.5 nM; at PIM-1 (setting [5]), under 100 nM.

The values above are taken from patent publication US9808466B2, “Macrocyclic compounds as protein kinase inhibitors” (Fundación Centro Nacional de Investigaciones Oncologicas …, priority 2011, dated 2017).
